Measurements taken from publication PMC10350919 (Journal of Medicinal Chemistry, 2023).

Columns and labels:
M. tuberculosis H37Ra = format: cell-based, Mycobacterium tuberculosis
[1] = tested on: M. bovis BCG Pasteur ATCC 35734; format: cell-based
E. faecium ATCC 700221 = assay: Neutropenic thigh infection mouse model with VanA E. faecium; format: in vivo; settings: compound 17 4 doses at 100 mg/kg i.p., linezolid 4 doses at 50 mg/kg i.p.

Q: For complestatin, which “MIC, M. tuberculosis H37Ra” value (M. tuberculosis H37Ra) is on record?
A: >64 µg/mL

Q: And the “MIC, M. bovis BCG Pasteur ATCC 35734” value [1]?
A: 64 µg/mL

Q: For `CC(=O)NC[C@H]1CN(c2ccc(N3CCOCC3)c(F)c2)C(=O)O1` [linezolid], which “weight loss compared to untreated control mice” value (E. faecium ATCC 700221) is on record?
A: reduced weight loss

Q: And the “survival (endpoint: 15% of starting weight lost)” value (E. faecium ATCC 700221; neutropenic mice, Kaplan–Meier, *P < 0.05 Gehan–Breslow–Wilcoxon test)?
A: significant survival benefit
